{"source": "paper PMC6541974", "about": "“Rho-Kinase II Inhibitory Potential of Eurycoma longifolia New Isolate for the Management of Erectile Dysfunction” (Evidence-based Complementary and Alternative Medicine : eCAM, 2019)", "key": {"[1]": {"target": "T1, ROCK-II (Homo sapiens, UniProt O75116)", "T1 construct": "purchased Promega, USA", "T1 sequence (O75116 whole entry)": "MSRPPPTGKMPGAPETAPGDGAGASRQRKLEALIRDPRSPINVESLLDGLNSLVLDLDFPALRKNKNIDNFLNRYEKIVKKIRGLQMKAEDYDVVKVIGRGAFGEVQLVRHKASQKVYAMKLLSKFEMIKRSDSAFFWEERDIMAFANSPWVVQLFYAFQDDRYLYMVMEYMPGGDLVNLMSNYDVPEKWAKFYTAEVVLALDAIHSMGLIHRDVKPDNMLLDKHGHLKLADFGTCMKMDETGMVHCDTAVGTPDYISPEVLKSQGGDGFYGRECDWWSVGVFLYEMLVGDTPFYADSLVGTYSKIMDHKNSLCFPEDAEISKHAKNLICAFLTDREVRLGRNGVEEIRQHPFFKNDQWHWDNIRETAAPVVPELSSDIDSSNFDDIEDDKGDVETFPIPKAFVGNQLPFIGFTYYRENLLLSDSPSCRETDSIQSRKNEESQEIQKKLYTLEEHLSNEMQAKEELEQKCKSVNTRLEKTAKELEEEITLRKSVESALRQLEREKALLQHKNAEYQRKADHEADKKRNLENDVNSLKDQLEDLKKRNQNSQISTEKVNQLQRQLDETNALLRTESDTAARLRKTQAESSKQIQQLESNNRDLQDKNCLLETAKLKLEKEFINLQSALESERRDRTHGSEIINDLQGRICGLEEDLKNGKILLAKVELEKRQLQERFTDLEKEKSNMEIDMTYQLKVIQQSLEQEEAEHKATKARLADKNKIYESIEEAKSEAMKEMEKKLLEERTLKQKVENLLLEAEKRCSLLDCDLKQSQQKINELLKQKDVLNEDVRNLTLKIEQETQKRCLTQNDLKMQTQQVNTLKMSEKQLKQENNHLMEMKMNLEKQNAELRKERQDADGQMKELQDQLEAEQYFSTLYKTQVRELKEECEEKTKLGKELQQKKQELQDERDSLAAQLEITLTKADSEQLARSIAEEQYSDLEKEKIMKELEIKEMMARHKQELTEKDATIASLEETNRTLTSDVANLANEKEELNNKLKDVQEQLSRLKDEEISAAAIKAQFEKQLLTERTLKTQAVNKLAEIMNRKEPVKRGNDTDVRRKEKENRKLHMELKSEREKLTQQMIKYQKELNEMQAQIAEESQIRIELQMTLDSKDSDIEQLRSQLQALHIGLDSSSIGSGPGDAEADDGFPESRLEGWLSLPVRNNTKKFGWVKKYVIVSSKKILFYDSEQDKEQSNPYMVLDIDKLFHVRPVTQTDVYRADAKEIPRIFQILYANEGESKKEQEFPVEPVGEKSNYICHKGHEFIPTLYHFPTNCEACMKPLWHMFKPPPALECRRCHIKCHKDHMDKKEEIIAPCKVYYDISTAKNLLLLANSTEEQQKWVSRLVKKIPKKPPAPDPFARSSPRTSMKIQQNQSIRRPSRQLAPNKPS", "assay": "ROCK-II inhibition assay (ADP-Glo Kinase Assay, ROCK2 Kinase assay)", "type": "biochemical", "conditions": "for inhibition at 0.01 µg/mL / inhibition at 0.1 µg/mL / inhibition at 1 µg/mL / inhibition at 10 µg/mL: read-out: % of inhibition of ROCK-II ± SD", "experimental": "A vehicle control for 5% DMSO was used in the assay to check the interference. Standard curve for ROCK-II enzyme was done (Figure 2). Serial dilution and IC50 of the AE was performed in triplicate.\nThe assay was repeated as mentioned in Section 2.3 on the AE fractions and the isolates T1-T8.\nThe assay performance measure was used to validate the screening assay quality through calculation of Z-factor according to methodology of Zhang et al., 1999 [18].\nEnzyme inhibition by tested samples is expressed as mean ± SD and analyzed using Prism program version 6 (GraphPad Software, Inc., San Diego CA); comparisons among tested samples were carried out using one-way analysis of variance (ANOVA) followed by Bonferroni's multiple comparisons test. P ‹ 0.05 was considered significant."}, "[2]": {"system": "testosterone production", "parameters": "method as in PMID 26978330", "conditions": "cited from earlier work"}, "[3]": {"system": "aromatase enzyme", "parameters": "method as in PMID 23810842", "conditions": "Leydig cells, transformation of testosterone to estrogen; cited from earlier work"}, "[4]": {"system": "phosphodiesterase", "parameters": "method as in PMID 23810842", "conditions": "high concentration; cited from earlier work"}, "[5]": {"conditions": "mean ± SD, triplicates, read-out: IC50 (converted)"}}, "note": "Like-named read-outs stand apart in the source and are kept apart here."}
{"molecule": "C[C@@H](N)[C@H]1CC[C@H](C(=O)Nc2ccncc2)CC1.Cl.Cl", "note": "(relative stereo) [Compound Y-27632, (+)-(R)-trans-4-(1-aminoethyl)-N-(4-pyridyl)cyclohexanecarboxamide dihydrochloride, reference compound]", "values": [{"measurement": "% of inhibition of ROCK-II ± SD", "setting": "[1]; concentration 0.01 µg/ml", "result": "22.5 ± 1.27∗ %"}, {"measurement": "% of inhibition of ROCK-II ± SD", "setting": "[1]; concentration 0.1 µg/ml", "result": "42.15 ± 2.19∗ %"}, {"measurement": "% of inhibition of ROCK-II ± SD", "setting": "[1]; concentration 1 µg/ml", "result": "68.15 ± 2.75∗ %"}, {"measurement": "% of inhibition of ROCK-II ± SD", "setting": "[1]; concentration 10 µg/ml", "result": "89.9± 0.42∗ %"}, {"measurement": "inhibition for ROCK-II activity", "setting": "[1]; concentrations 1-10 μg/ml", "result": "68.15-89.9%"}]}
{"molecule": "CC[C@H](/C=C/[C@@H](C)[C@H]1CC[C@H]2[C@@H]3CC=C4C[C@@H](O)CC[C@]4(C)[C@H]3CC[C@]12C)C(C)C", "note": "[Compound T1, stigmasterol]", "values": [{"measurement": "IC50", "setting": "[1]; [5]", "result": 14900, "unit": "nM"}, {"measurement": "inhibition at 0.01 µg/mL", "setting": "[1]", "result": "2.78 ± 1.84", "unit": "%"}, {"measurement": "inhibition at 0.1 µg/mL", "setting": "[1]", "result": "13.3 ± 2.26", "unit": "%"}, {"measurement": "inhibition at 1 µg/mL", "setting": "[1]", "result": "27.4 ± 2.47", "unit": "%"}, {"measurement": "inhibition at 10 µg/mL", "setting": "[1]", "result": "60.3 ± 0.14", "unit": "%"}]}
{"molecule": "COc1cc(/C=C/C=O)ccc1O", "note": "[Compound T2, trans-coniferyl aldehyde]", "values": [{"measurement": "inhibition at 0.01 µg/mL", "setting": "[1]; concentration 0.01 µg/ml", "result": "10.6 ± 2.94", "unit": "%"}, {"measurement": "inhibition at 0.1 µg/mL", "setting": "[1]; concentration 0.1 µg/ml", "result": "33.2 ± 1.55", "unit": "%"}, {"measurement": "inhibition at 1 µg/mL", "setting": "[1]; concentration 1 µg/ml", "result": "68.5 ± 0.35", "unit": "%"}, {"measurement": "inhibition at 10 µg/mL", "setting": "[1]; concentration 10 µg/ml", "result": "82.1 ± 0.63", "unit": "%"}, {"measurement": "IC50", "setting": "[1]; [5]", "result": 2010, "unit": "nM"}]}
{"molecule": "COc1cc2ccc(=O)oc2cc1O", "note": "[Compound T3, scopoletin]", "values": [{"measurement": "inhibition at 0.01 µg/mL", "setting": "[1]; concentration 0.01 µg/ml", "result": "10.1 ± 3.34", "unit": "%"}, {"measurement": "inhibition at 0.1 µg/mL", "setting": "[1]; concentration 0.1 µg/ml", "result": "25 ± 2.47", "unit": "%"}, {"measurement": "inhibition at 1 µg/mL", "setting": "[1]; concentration 1 µg/ml", "result": "66.15 ± 0.07", "unit": "%"}, {"measurement": "inhibition at 10 µg/mL", "setting": "[1]; concentration 10 µg/ml", "result": "77.1 ± 0.11", "unit": "%"}, {"measurement": "IC50", "setting": "[1]; [5]", "result": 2730, "unit": "nM"}]}
{"molecule": "CC1=CC(=O)[C@@H](O)[C@@]2(C)[C@H]1CC(=O)[C@@]1(C)[C@H]3C(=O)O[C@H]([C@@H]3C)[C@H](O)[C@@H]12", "note": "[Compound T4, eurycomalactone]", "values": [{"measurement": "IC50", "setting": "[1]", "result": 2280, "unit": "nM"}, {"measurement": "inhibition at 0.01 µg/mL", "setting": "[1]", "result": "6.13 ± 0.44", "unit": "%"}, {"measurement": "inhibition at 0.1 µg/mL", "setting": "[1]", "result": "25.7 ± 2.47", "unit": "%"}, {"measurement": "inhibition at 1 µg/mL", "setting": "[1]", "result": "54 ± 0.42", "unit": "%"}, {"measurement": "inhibition at 10 µg/mL", "setting": "[1]", "result": "76.2 ± 3.53", "unit": "%"}]}
{"molecule": "C=C1C(O)C2(O)OCC34C(CC5C(C)=CC(OC6OC(CO)C(O)C(O)C6O)C(O)C5(C)C23)OC(=O)C(O)C14O", "note": "[Compound T8, eurycomanol-2-O-β-D-glycopyranoside]", "values": [{"measurement": "IC50", "setting": "[1]", "result": 2520, "unit": "nM"}, {"measurement": "inhibition at 0.01 µg/mL", "setting": "[1]", "result": "4.06 ± 3.8", "unit": "%"}, {"measurement": "inhibition at 0.1 µg/mL", "setting": "[1]", "result": "17 ± 0.77", "unit": "%"}, {"measurement": "inhibition at 1 µg/mL", "setting": "[1]", "result": "46.5 ± 1.62", "unit": "%"}, {"measurement": "inhibition at 10 µg/mL", "setting": "[1]", "result": "71.4 ± 2.54", "unit": "%"}]}
{"molecule": "eurycomanone [Compound T6]", "values": [{"measurement": "% of inhibition of ROCK-II ± SD", "setting": "[1]; concentration 0.01 µg/ml", "result": "5.4 ± 3.74", "unit": "%"}, {"measurement": "% of inhibition of ROCK-II ± SD", "setting": "[1]; concentration 0.1 µg/ml", "result": "26.4 ± 2.61∗ %"}, {"measurement": "% of inhibition of ROCK-II ± SD", "setting": "[1]; concentration 1 µg/ml", "result": "57.1 ± 0.56∗ %"}, {"measurement": "% of inhibition of ROCK-II ± SD", "setting": "[1]; concentration 10 µg/ml", "result": "78.3 ± 0.38∗ %"}, {"measurement": "IC50", "setting": "[1]; mean ± SD, triplicates", "result": "677 ± 51.1∗ ng/ml"}, {"measurement": "testosterone production", "setting": "[2]", "result": "induce testosterone production"}, {"measurement": "aromatase enzyme inhibition", "setting": "[3]", "result": "aromatase enzyme inhibition"}, {"measurement": "effect on phosphodiesterase", "setting": "[4]", "result": "inhibitory effect"}]}
